Key:
[1] = system: A549 human lung cancer cell line; experiment: 4-AP co-applied with cisplatin to cancer cells in vitro (Example 10); type: cell-based; details: 5 days, 1 mM 4-AP
Description: (§1) To investigate the effects of 4-AP treatment on cancer cells, 4-AP was co-applied with either paclitaxel or cisplatin in dose response curves extending over a >20-fold range to the widely studied E0771 murine breast cancer cell line and the A549 human lung cancer cell line. Cells were exposed to paclitaxel or cisplatin for 5 days in the presence or absence of 1 mM 4-AP. This concentration of 4-AP is typically used for in vitro studies, and greatly exceeds achievable concentrations in vivo. This higher dose would increase the likelihood of detecting protective activity.

kidney = experiment: Kidney histology (H&E) after PTX with or without 4-AP (Example 8); type: in vivo, mice; details: PTX day 0
Description: To examine effects on the kidney histological studies were conducted on this tissue. Mice received PTX on day 0 of the experiment, and half of those mice also were injected with 4-AP at this time, and every day thereafter, at a dosage of 2 mg/kg. Mice not receiving 4-AP were injected with saline to control for any stress induced by daily injections. Experimental groups also included mice receiving no PTX treatment, and treated only with daily injections of saline. Mice were sacrificed after 1 week. Mice were perfused with 4% paraformaldehyde and kidneys were sectioned and stained with haematoxylin & eosin (H&E).

PTX-induced CIPN [2] = experiment: Repetitive PTX exposure, delayed 4-AP from week 6 (Example 5); type: in vivo, mice; details: four cycles 35 mg/kg PTX
Description: To examine this question, 16 week old C7BL/6 female mice were given four cycles of PTX treatment at doses of 35 mg/kg PTX (i.p.). Animals were separated into control (saline, i.p.) or treatment group treated with a dose of 4AP 25% of that used in FIGS. 1 and 2 (i.e., 0.5 mg/kg 4-AP daily, i.p., with treatment initiated 6 weeks after the first PTX treatment and when CIPN-related changes were already apparent).

PTX-induced CIPN [3] = experiment: Repetitive PTX exposure, concurrent low-dose 4-AP weeks 1-12: function and nerve ultrastructure (Examples 3 and 4); type: in vivo, mice
Description: To determine whether 4-AP also conferred protection against developing CIPN when animals were repetitively exposed to PTX, 16 week old C7BL/6 female mice were given four cycles of PTX treatment at doses of 35 mg/kg PTX (i.p.). Animals were separated into control (saline, i.p.) or treatment group treated with a dose of 4AP 25% of that used in Examples 1 and 2 (i.e., 0.5 mg/kg 4-AP daily, i.p.).
To determine whether 4-AP prevented chemotherapy-induced structural damage even when chemotherapy was applied multiple times, ultrastructural analyses of tissue from mice treated with 35 mg/kg PTX, every 3 weeks, for 4 cycles of treatment was conducted. A low dose of 4-AP that was only 25% of the dose used in Examples 1 and 2 was used, which was applied at 0.5 mg/kg daily instead of 2 mg/kg daily.

[4] = system: glial fibrillary acidic protein (GFAP); experiment: GFAP immunofluorescence in corpus callosum after PTX with or without 4-AP (Example 9); type: in vivo; details: E0771 tumor-bearing mice; PTX 35 mg/kg day one; 4-AP daily
Description: To determine whether 4-AP treatment can prevent PTX-induced increases in a reactive inflammatory response in the brain, as detected by increased expression of glial fibrillary acidic protein (GFAP), 16-week-old female C57BL/6 mice were inoculated with a triple negative murine breast cancer cell line E0771. When tumors were palpable, the mice were injected with either paclitaxel and water, 4-AP, both, or saline as a control. Paclitaxel (35 mg/kg) was injected on day one and 4-AP and water were injected daily. The mice were sacrificed on day nine and their brains were perfused and harvested. Brains were cryosectioned coronally.
The mouse brain sections were stained with anti-GFAP antibodies, followed by a fluorescent secondary, for analysis via immunofluorescence.

[5] = system: acute peripheral nerve traumatic crush injuries; details: localized peripheral nerve crush injuries; cited from earlier work
[6] = system: chemotherapy-induced peripheral neuropathy (CIPN) caused by PTX
Description: More specifically, initial studies were conducted on the specific case of CIPN as induced by exposure to PTX. […] 16 week old C73L/6 female mice were given a single dose of 35 mg/kg PTX (i.p.). Animals were separated into control (saline, i.p., n=4) or treatment group (2 mg/kg 4-AP daily, i.p., n=4). Pre-treatment Catwalk scores were compared to 21 days post-PTX injection.
To align with clinical treatments, mice were treated with a PTX dose of 35 mg/kg (equivalent to approximately 110 mg/m^2 and within the clinical treatment range) for four cycles, each three weeks apart.
The studies also included a 4-AP treatment arm (n=4) with a daily dose of 2 mg/kg 4-AP administered i.p. (as per most previous studies by MN and colleagues).
To evaluate detailed functional changes in gait, the CatWalk™ (Noldus Information Technology, Wageningen, The Netherlands) method was implemented.
Sciatic nerve samples were harvested and resin-embedded, sectioned and imaged using transmission electron microscopy. Images were analyzed to calculate markers of peripheral neuropathy, namely: axon counts, fiber size, myelination (g ratio), and circumferential irregularity (FIG. 2).

[7] = system: chronic spinal cord injury; details: individuals with chronic spinal cord injury; cited from earlier work
[8] = system: E0771 murine breast cancer cell line; experiment: 4-AP co-applied with paclitaxel to cancer cells in vitro (Example 10); type: cell-based
Description: as §1

PTX-induced CIPN [9] = experiment: Four PTX injections, concurrent 4-AP (Example 2); type: in vivo, mice; details: 4-AP 1 mg/kg daily concurrent
Description: A subset of animals concurrently received 4-AP (1 mg/kg, daily), which was started at the same as the initial PTX treatment and continued throughout. Functional outcome responses were recorded at three-week intervals throughout the study period, and included von Frey monofilament testing, cold plate thermal sensitivity, CatWalk™ gait analysis, and nerve conduction testing. All animals had functionally demonstrable peripheral neuropathy at six weeks.

[10] = 0.5 mg/kg 4-AP daily started at week 6
[11] = four cycles 35 mg/kg PTX, 0.5 mg/kg 4-AP daily
[12] = four cycles 35 mg/kg PTX, 0.5 mg/kg 4-AP daily i.p.
[13] = 3 weeks after one 35 mg/kg PTX, 2 mg/kg 4-AP daily
[14] = single 35 mg/kg PTX i.p., 2 mg/kg 4-AP daily i.p., vs saline control
[15] = single 35 mg/kg PTX, 2 mg/kg 4-AP daily i.p., pre-treatment vs 21 days post-PTX

Q: Which results are given for Nc1ccncc1 [4-AP, 4-aminopyridine]?
A: protection of cancer cells from cisplatin [1]: does not protect; proximal and distal tubules, H&E staining (kidney; 4-AP 2 mg/kg daily, sacrificed after 1 week): normal proximal and distal tubules; histological kidney damage caused by PTX exposure (kidney; 4-AP co-treatment): prevented multiple aspects of histological kidney damage; mechanical hypersensitivity, von Frey filament testing (PTX-induced CIPN [2]; 0.5 mg/kg 4-AP daily i.p. started at week 6): benefits of 4-AP treatment began to be observed at Week 12; gait abnormalities, Catwalk analyses (PTX-induced CIPN [2]; [10]): reversed PTX-induced gait abnormalities; jumping behavior, cold-plate stimulus (PTX-induced CIPN [2]; [10]): reversed the symptoms of hypersensitivity to thermal stimuli; nerve conduction (latency, amplitude, velocity) (PTX-induced CIPN [2]; [10]): reversed PTX-induced abnormalities in nerve conduction; structural myelin abnormalities indicative of myelin degeneration (PTX-induced CIPN [2]; [10]): reversed PTX-induced structural myelin abnormalities; G ratio (axon:myelin area) (PTX-induced CIPN [3]; [11]): better myelinated than the control (PTX+Saline) group; axon circularity (PTX-induced CIPN [3]; [11]): more regularly structured than the control group; frequency of degenerating myelin profiles (PTX-induced CIPN [3]; [11]): decreased frequency of degenerating myelin profiles; gait abnormalities, Catwalk analyses (PTX-induced CIPN [3]; [12]): ameliorated PTX-induced gait abnormalities; jumping behavior, cold-plate stimulus (PTX-induced CIPN [3]; [12]): highly significant at Weeks 6, 9 and 12; nerve conduction (latency, amplitude, velocity) (PTX-induced CIPN [3]; [12]): ameliorated PTX-induced abnormalities in nerve conduction; pawlifts, cold-plate stimulus (PTX-induced CIPN [3]; [12]): trended significant at Weeks 6 and 9 and were highly significant at Week 12; mechanical hypersensitivity, von Frey filament testing (PTX-induced CIPN [3]; four cycles 35 mg/kg PTX, 0.5 mg/kg 4-AP daily i.p. weeks 1-12): ameliorated PTX-induced mechanical hypersensitivity; mitochondrial health by mitochondrial structure (PTX-induced CIPN [3]; repetitive exposure to chemotherapy, 0.5 mg/kg 4-AP daily): improves mitochondrial health; PTX-induced increased expression of GFAP, corpus callosum [4]: greatly reduced; recovery of thermal hyperalgesia and mechanical allodynia [5]: enhanced recovery on the specific parameter or thermal hyperalgesia, but not mechanical allodynia; PTX-induced changes in mitochondrial size and health ([6]; 2 mg/kg 4-AP daily i.p.): decreased PTX-induced changes in mitochondrial size and health; signs of CIPN ([6]; 2 mg/kg 4-AP daily i.p. vs saline, n=4): significantly reduced signs of CIPN; G ratio (axon:myelin area), sciatic nerve [6, 13]: better myelinated than the control group; axon circularity, sciatic nerve [6, 13]: more regularly structured than the control group; nerve conduction latency [6, 14]: significantly smaller increase in latency; nerve conduction velocity [6, 14]: significantly smaller decrease in velocity; Catwalk stance phase [6, 15]: no significant changes; Catwalk swing phase [6, 15]: no significant changes; Phase III outcome [7]: failed to reveal significant benefits; neuropathic pain [7]: decrease neuropathic pain in some individuals; protection of cancer cells from PTX ([8]; 5 days exposure to PTX in vitro, concurrent 4-AP (1 mM)): did not protect; sensitivity of cancer cells to paclitaxel ([8]; 5 days, 1 mM 4-AP): appears to even increase sensitivity to low doses of paclitaxel; mechanical allodynia, Von Frey filament testing (PTX-induced CIPN [9]; four 35 mg/kg PTX i.p. at three-week intervals): no changes from baseline in their response; amplitude and velocity of nerve impulse conduction (PTX-induced CIPN [9]; four 35 mg/kg PTX): prevented the development of these changes; loss of cold sensitivity, paw lifts and hind paw licks on cold plate (PTX-induced CIPN [9]; four 35 mg/kg PTX): prevented the development of these changes; sensitivity to cold, jumps off cold plate (PTX-induced CIPN [9]; four 35 mg/kg PTX): no changes from baseline in this parameter
